Experiments:
[1] = human clinical tests, reduction of plaque formation; type: in vivo
[2] = test system: four dental plaque organisms; assay: MIC test on the four dental plaque organisms, summary in words; type: cell-based; details: without TCHE
Method: (§1) Slurries and solutions described below are prepared to determine effectiveness in terms of minimum inhibitory concentration (MIC) of various antibacterial agents against a variety of oral bacterial organisms implicated in formation of plaque and leading to gingivitis on dental surfaces. Soft plaque contains about 1.7×10^11 organism/gm. (net weight). The antibacterial agents are admixed with anionic materials, particularly anionic surface active agent often commonly employed in oral compositions and polyphosphate anticalculus agent.
(§2) Minimum inhibitory concentration (MIC) of antibacterial agent is used to evaluate the efficacy of the agent in vitro. […] The smaller the MIC value the greater is the efficacy of the antibacterial agent to inhibit the growth of the bacteria. The in vitro MIC data is related to the efficacy of the dentifrice in vivo since retention and release of antibacterial agent into the oral cavity after toothbrushing is in the range of mcg/ml.

Bacteriodes intermedius = assay: Minimum inhibitory concentration (MIC) against Bacteriodes intermedius, in vitro; type: cell-based
Method: as §1, §2

Bacteriodes gingivalis [3] = assay: Minimum inhibitory concentration (MIC) against Bacteriodes gingivalis, in vitro; type: cell-based
Method: as §1, §2

Streptococcus mutans = assay: Minimum inhibitory concentration (MIC) against Streptococcus mutans, in vitro; type: cell-based
Method: as §1, §2

[4] = test system: Actinobacillus actinomycetemcomitans; assay: Minimum inhibitory concentration (MIC) against Actinobacillus actinomycetemcomitans, in vitro; type: cell-based
Method: as §1, §2

Bacteriodes gingivalis [5] = assay: inhibition of growth of Bacteriodes gingivalis by dentifrice extracts; type: cell-based; details: dentifrice containing anionic surfactant plus pyrophosphate with enzyme inhibitors Gantrez and NaF
Method: The dentifrice described in Example 3A is compared with the same composition except without any TCHE and with added 0.50 parts of water. Aqueous extracts of each dentifrice are prepared as follows: 50 ml of distilled water is added to 1.0 gm of each dentifrice, mixed well for a couple of hours with stirring bar and centrifuged, after which the supernatant is collected as aqueous extract. Antibacterial activity of the dentifrice extracts are evaluated on Bacteriodes gingivalis.

[6] = 0.5% TCHE, 1% SLS, 1% Gantrez, 2% Pyrophosphate and 0.2% NaF in water

## CC(C)(C)CC(C)(C)c1ccc(OCCOCC[N+](C)(C)Cc2ccccc2)cc1 [BTC, benzethonium chloride]
[1]; 0.075% BTC and 1% pyrophosphate dissolved in water
  reducing plaque formation: is not
[1]; 0.075% BTC dissolved in water
  reducing plaque formation: effective in reducing plaque formation

## N=C(NCCCCCCNC(=N)NC(=N)Nc1ccc(Cl)cc1)NC(=N)Nc1ccc(Cl)cc1 [CH, chlorhexidine digluconate]
[1]; 0.1% CH and 1% sodium N-lauroyl sarcosinate dissolved in water
  reducing plaque formation: is not
[1]; 0.1% CH dissolved in water
  reducing plaque formation: effective in reducing plaque formation

## CCCCCCCCCCCCOS(=O)(=O)[O-].[Na+] [SLS, sodium lauryl sulfate]
[2]
  antibacterial effect: ineffective

## Oc1cc(Cl)ccc1Oc1ccc(Cl)cc1Cl [TCHE, 2,4,4'-trichloro-2'-hydroxydiphenyl ether]
Bacteriodes intermedius; 0.5% TCHE and 1% SLS in water
  Minimum Inhibition Concentration (MIC), Bacteriodes intermedius: 2.5 µg/mL
Bacteriodes intermedius; [6]
  Minimum Inhibition Concentration (MIC), Bacteriodes intermedius: 2.5 µg/mL
Bacteriodes gingivalis [3]; 0.5% TCHE and 1% SLS in water
  Minimum Inhibition Concentration (MIC), Bacteriodes gingivalis: 2.5 µg/mL
Bacteriodes gingivalis [3]; [6]
  Minimum Inhibition Concentration (MIC), Bacteriodes gingivalis: 2.5 µg/mL
Streptococcus mutans; 0.5% TCHE and 1% SLS in water
  Minimum Inhibition Concentration (MIC), Streptococcus mutans: 25.0 µg/mL
Streptococcus mutans; [6]
  Minimum Inhibition Concentration (MIC), Streptococcus mutans: 25.0 µg/mL
[4]; 0.5% TCHE and 1% SLS in water
  Minimum Inhibition Concentration (MIC), Actinobacillus actinomycetemcomitans: 5.0 µg/mL
[4]; [6]
  Minimum Inhibition Concentration (MIC), Actinobacillus actinomycetemcomitans: 5.0 µg/mL
Bacteriodes gingivalis [5]
  compatibility in dentifrice composition: compatible
